The values that follow come from patent US9340590B2 (priority 2011, dated 2016).

Positions of bridges follow the written chain, without caps; N, C: chain ends. Residues, ends and D or L forms follow the SMILES beside them.

Test in all cases: cell-based
For one assay, the target named is hNav1.3 (Homo sapiens, UniProt Q9NY46). As to conditions: IonWorks Quattro, use-dependent block, hNav1.3; read-out: IWQ Use Nav1.3.
A further assay addresses hNav1.5 (Homo sapiens, UniProt Q14524). Conditions: IonWorks Quattro, use-dependent block, hNav1.5; read-out: IWQ Use Nav1.5.
In a further assay the target is hNav1.7 (Homo sapiens, UniProt Q15858). Type of assay: cell-based. Conditions: IonWorks Quattro, use-dependent block, hNav1.7; read-out: IWQ Use Nav1.7.
Sequence of hNav1.7 (Q15858 whole entry, looked up): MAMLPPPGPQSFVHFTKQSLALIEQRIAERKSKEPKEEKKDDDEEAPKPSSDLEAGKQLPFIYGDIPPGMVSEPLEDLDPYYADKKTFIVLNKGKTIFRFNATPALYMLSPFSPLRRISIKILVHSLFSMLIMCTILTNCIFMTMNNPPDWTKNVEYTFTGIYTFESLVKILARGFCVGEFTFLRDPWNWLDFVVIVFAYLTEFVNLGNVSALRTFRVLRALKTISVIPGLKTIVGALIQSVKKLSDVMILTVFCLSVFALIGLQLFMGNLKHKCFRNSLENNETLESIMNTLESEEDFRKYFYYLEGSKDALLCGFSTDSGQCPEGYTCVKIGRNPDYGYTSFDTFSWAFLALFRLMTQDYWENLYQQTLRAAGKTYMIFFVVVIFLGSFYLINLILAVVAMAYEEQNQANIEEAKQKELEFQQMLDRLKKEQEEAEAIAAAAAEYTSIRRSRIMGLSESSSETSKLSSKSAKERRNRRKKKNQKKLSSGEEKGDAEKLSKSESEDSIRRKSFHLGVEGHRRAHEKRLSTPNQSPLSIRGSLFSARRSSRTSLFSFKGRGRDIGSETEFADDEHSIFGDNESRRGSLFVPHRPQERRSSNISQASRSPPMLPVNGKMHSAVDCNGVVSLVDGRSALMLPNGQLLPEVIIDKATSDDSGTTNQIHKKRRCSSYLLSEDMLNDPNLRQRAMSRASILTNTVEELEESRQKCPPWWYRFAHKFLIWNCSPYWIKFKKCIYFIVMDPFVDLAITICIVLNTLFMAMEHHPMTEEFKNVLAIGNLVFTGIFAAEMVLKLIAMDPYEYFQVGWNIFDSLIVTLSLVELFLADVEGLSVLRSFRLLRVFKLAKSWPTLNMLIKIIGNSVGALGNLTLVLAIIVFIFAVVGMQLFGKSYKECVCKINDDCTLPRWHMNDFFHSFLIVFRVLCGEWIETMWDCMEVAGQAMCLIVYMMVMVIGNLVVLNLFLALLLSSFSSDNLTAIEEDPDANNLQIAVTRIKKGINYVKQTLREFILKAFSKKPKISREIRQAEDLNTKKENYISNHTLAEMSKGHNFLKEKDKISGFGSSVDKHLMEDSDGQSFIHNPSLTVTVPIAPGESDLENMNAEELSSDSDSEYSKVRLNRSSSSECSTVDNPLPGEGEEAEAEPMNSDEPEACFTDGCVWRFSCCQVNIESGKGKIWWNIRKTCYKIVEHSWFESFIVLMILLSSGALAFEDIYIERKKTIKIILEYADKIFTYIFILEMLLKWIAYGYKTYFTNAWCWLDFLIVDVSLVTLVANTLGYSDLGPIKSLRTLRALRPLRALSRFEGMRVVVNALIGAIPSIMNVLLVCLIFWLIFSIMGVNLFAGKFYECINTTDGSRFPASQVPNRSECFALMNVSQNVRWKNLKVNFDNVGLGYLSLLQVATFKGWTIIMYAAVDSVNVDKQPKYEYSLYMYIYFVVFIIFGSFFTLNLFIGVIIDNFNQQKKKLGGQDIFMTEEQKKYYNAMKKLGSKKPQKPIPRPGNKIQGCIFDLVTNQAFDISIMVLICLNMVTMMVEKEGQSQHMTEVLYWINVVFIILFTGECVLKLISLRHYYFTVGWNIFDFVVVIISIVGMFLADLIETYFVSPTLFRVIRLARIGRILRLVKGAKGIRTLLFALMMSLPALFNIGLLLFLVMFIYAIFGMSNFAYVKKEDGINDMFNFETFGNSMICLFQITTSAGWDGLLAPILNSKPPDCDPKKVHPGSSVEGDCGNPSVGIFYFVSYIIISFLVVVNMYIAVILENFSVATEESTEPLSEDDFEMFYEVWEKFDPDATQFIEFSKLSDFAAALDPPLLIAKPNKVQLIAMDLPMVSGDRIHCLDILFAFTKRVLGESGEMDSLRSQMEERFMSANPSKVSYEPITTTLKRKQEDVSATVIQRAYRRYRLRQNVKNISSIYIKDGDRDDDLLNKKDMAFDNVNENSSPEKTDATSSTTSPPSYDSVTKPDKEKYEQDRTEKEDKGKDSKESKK

Sequence of hNav1.5 (Q14524 whole entry, looked up): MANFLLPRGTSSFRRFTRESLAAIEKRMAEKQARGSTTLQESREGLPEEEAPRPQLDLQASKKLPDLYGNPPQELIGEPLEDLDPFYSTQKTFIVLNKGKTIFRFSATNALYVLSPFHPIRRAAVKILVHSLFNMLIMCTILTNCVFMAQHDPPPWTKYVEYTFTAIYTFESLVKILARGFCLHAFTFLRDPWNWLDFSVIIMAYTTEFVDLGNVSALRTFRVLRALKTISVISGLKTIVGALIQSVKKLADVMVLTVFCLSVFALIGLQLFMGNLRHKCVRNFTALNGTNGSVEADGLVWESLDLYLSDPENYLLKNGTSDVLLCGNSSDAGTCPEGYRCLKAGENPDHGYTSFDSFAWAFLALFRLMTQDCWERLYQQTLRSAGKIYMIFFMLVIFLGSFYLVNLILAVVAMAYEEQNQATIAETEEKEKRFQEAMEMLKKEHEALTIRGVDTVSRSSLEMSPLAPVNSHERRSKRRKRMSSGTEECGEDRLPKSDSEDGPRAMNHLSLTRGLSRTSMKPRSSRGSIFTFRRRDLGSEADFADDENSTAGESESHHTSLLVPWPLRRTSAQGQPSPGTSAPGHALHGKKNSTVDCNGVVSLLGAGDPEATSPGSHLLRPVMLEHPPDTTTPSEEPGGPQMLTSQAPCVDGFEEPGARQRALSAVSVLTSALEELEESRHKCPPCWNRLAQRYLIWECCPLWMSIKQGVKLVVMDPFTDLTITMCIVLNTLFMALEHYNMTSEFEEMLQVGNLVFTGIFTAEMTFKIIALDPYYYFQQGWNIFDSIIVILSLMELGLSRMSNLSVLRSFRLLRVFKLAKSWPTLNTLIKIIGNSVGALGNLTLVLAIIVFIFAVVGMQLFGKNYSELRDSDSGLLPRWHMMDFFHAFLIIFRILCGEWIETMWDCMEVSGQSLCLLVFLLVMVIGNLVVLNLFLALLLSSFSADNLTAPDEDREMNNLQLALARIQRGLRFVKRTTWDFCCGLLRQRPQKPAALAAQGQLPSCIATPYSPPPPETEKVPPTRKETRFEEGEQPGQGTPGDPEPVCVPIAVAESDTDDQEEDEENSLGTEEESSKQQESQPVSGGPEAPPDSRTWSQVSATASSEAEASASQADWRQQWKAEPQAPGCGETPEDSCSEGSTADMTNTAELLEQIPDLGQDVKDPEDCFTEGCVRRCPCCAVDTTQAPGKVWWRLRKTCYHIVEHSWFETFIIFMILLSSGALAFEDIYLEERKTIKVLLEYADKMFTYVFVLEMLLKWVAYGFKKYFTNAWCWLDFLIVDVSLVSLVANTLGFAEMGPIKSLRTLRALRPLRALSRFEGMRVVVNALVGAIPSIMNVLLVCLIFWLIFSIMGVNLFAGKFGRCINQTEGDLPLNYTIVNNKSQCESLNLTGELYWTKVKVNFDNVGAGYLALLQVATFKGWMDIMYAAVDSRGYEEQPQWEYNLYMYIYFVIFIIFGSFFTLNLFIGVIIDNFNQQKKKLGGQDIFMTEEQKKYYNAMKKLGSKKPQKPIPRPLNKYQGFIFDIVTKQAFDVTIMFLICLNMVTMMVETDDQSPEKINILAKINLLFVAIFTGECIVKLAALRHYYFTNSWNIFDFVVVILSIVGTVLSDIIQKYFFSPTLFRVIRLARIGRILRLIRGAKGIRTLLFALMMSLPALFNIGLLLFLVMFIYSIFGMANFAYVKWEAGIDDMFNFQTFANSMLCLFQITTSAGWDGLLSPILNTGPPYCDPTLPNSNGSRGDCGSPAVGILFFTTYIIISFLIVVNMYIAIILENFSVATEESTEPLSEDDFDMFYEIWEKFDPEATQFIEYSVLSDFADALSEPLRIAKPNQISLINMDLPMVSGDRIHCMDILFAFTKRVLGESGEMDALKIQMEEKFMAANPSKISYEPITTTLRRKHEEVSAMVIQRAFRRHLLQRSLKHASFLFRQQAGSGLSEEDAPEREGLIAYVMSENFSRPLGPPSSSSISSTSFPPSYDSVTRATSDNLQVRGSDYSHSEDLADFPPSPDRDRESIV

Consider `CC[C@H](C)[C@@H]1NC(=O)[C@@H]2CSSC[C@@H]3NC(=O)[C@H](C(C)C)NC(=O)[C@H](CC(C)C)NC(=O)[C@H](CC(N)=O)NC(=O)[C@@H]4CCCN4C(=O)[C@H](CCCNC(=N)N)NC(=O)[C@H](CSSC[C@H](NC(=O)[C@@H](N)CC(=O)O)C(=O)N[C@@H](CC(C)C)C(=O)NCC(=O)N[C@@H](Cc4ccccc4)C(=O)N[C@@H](CCSC)C(=O)N[C@@H](CCCNC(=N)N)C(=O)N[C@@H](CCCCN)C(=O)N2)NC(=O)[C@H](CSSC[C@@H](C(=O)N[C@@H](CCCCN)C(=O)N[C@@H](Cc2c[nH]c4ccccc24)C(=O)N[C@H](C(=O)N[C@@H](Cc2ccccc2)C(N)=O)C(C)C)NC(=O)[C@H](Cc2c[nH]c4ccccc24)NC(=O)[C@H](CCCNC(=N)N)NC(=O)[C@H](Cc2c[nH]cn2)NC(=O)[C@H]([C@@H](C)O)NC(=O)[C@H](CCCNC(=N)N)NC(=O)[C@H](CO)NC3=O)NC(=O)[C@H](CCCCN)NC(=O)[C@H](CC(=O)O)NC(=O)[C@H](CC(N)=O)NC(=O)[C@H](CC(=O)O)NC(=O)[C@@H]2CCCN2C1=O` [compound 443] (H-DCLGFMRKCIPDNDKCCRPNLVCSRTHRWCKWVF-NH2; disulfide 2-17, 9-23, 16-30), for which the IC50 on hNav1.3 came to 70 nM; on hNav1.5, 4920 nM; at hNav1.7 it was 70 nM.

Consider `CC[C@H](C)[C@@H]1NC(=O)[C@@H]2CSSC[C@@H]3NC(=O)[C@H](C(C)C)NC(=O)[C@H](CC(C)C)NC(=O)[C@H](CC(N)=O)NC(=O)[C@@H]4CCCN4C(=O)[C@H](CCCNC(=N)N)NC(=O)[C@H](CSSC[C@H](NC(=O)[C@@H](N)CC(=O)O)C(=O)N[C@@H](CC(C)C)C(=O)NCC(=O)N[C@@H](Cc4ccccc4)C(=O)N[C@@H](CCSC)C(=O)N[C@@H](CCCNC(=N)N)C(=O)N[C@@H](CCCCN)C(=O)N2)NC(=O)[C@H](CSSC[C@@H](C(=O)N[C@@H](CCCCN)C(=O)N[C@@H](Cc2ccc(O)cc2)C(=O)N[C@@H](Cc2c[nH]c4ccccc24)C(=O)N[C@@H](Cc2ccccc2)C(N)=O)NC(=O)[C@H](Cc2c[nH]c4ccccc24)NC(=O)[C@H](CCCNC(=N)N)NC(=O)[C@H](Cc2c[nH]cn2)NC(=O)[C@H]([C@@H](C)O)NC(=O)[C@H](CCCNC(=N)N)NC(=O)[C@H](CO)NC3=O)NC(=O)[C@H](CCCCN)NC(=O)[C@H](CC(=O)O)NC(=O)[C@H](CC(N)=O)NC(=O)[C@H](CC(=O)O)NC(=O)[C@@H]2CCCN2C1=O` [compound 444] (H-DCLGFMRKCIPDNDKCCRPNLVCSRTHRWCKYWF-NH2; disulfide 2-17, 9-23, 16-30), for which the IC50 is 40 nM on hNav1.3, over 5000 nM on hNav1.5 and 30 nM at hNav1.7.

For the compound `CC[C@H](C)[C@@H]1NC(=O)[C@@H]2CSSC[C@@H]3NC(=O)[C@H](C(C)C)NC(=O)[C@H](CC(C)C)NC(=O)[C@H](CC(N)=O)NC(=O)[C@@H]4CCCN4C(=O)[C@H](CCCNC(=N)N)NC(=O)[C@H](CSSC[C@H](NC(=O)[C@@H](N)CC(=O)O)C(=O)N[C@@H](CC(C)C)C(=O)NCC(=O)N[C@@H](Cc4ccccc4)C(=O)N[C@@H](CCSC)C(=O)N[C@@H](CCCNC(=N)N)C(=O)N[C@@H](CCCCN)C(=O)N2)NC(=O)[C@H](CSSC[C@@H](C(=O)N[C@@H](CCCCN)C(=O)N[C@@H](Cc2ccc(O)cc2)C(=O)N[C@H](C(=O)N[C@@H](Cc2ccccc2)C(N)=O)C(C)C)NC(=O)[C@H](Cc2c[nH]c4ccccc24)NC(=O)[C@H](CCCNC(=N)N)NC(=O)[C@H](Cc2c[nH]cn2)NC(=O)[C@H](CC(C)C)NC(=O)[C@H](CCCNC(=N)N)NC(=O)[C@H](CO)NC3=O)NC(=O)[C@H](CCCCN)NC(=O)[C@H](CC(=O)O)NC(=O)[C@H](CC(N)=O)NC(=O)[C@H](CC(=O)O)NC(=O)[C@@H]2CCCN2C1=O` [compound 445] (H-DCLGFMRKCIPDNDKCCRPNLVCSRLHRWCKYVF-NH2; disulfide 2-17, 9-23, 16-30), the figures for the IC50 at hNav1.3, on hNav1.5 and at hNav1.7 were 60 nM, over 5000 nM and 30 nM, respectively.

Consider `CC[C@H](C)[C@@H]1NC(=O)[C@@H]2CSSC[C@@H]3NC(=O)[C@H](C(C)C)NC(=O)[C@H](CC(C)C)NC(=O)[C@H](CC(N)=O)NC(=O)[C@@H]4CCCN4C(=O)[C@H](CCCNC(=N)N)NC(=O)[C@H](CSSC[C@H](NC(=O)[C@@H](N)CC(=O)O)C(=O)N[C@@H](CC(C)C)C(=O)NCC(=O)N[C@@H](Cc4ccccc4)C(=O)N[C@@H](CCSC)C(=O)N[C@@H](CCCNC(=N)N)C(=O)N[C@@H](CCCCN)C(=O)N2)NC(=O)[C@H](CSSC[C@@H](C(=O)N[C@@H](CCCCN)C(=O)N[C@@H](Cc2c[nH]c4ccccc24)C(=O)N[C@H](C(=O)N[C@@H](Cc2ccccc2)C(N)=O)C(C)C)NC(=O)[C@H](Cc2c[nH]c4ccccc24)NC(=O)[C@H](CCCCN)NC(=O)[C@H](Cc2c[nH]cn2)NC(=O)[C@H](CC(C)C)NC(=O)[C@H](CCCNC(=N)N)NC(=O)[C@H](CO)NC3=O)NC(=O)[C@H](CCCCN)NC(=O)[C@H](CC(=O)O)NC(=O)[C@H](CC(N)=O)NC(=O)[C@H](CC(=O)O)NC(=O)[C@@H]2CCCN2C1=O` [compound 446] (H-DCLGFMRKCIPDNDKCCRPNLVCSRLHKWCKWVF-NH2; disulfide 2-17, 9-23, 16-30), for which the IC50 at hNav1.3 was 60 nM; at hNav1.5, over 5000 nM; on hNav1.7 it was 40 nM.

For the compound `CC[C@H](C)[C@@H]1NC(=O)[C@@H]2CSSC[C@@H]3NC(=O)[C@H](C(C)C)NC(=O)[C@H](CC(C)C)NC(=O)[C@H](CC(N)=O)NC(=O)[C@@H]4CCCN4C(=O)[C@H](CCCNC(=N)N)NC(=O)[C@H](CSSC[C@H](NC(=O)[C@@H](N)CC(=O)O)C(=O)N[C@@H](CC(C)C)C(=O)NCC(=O)N[C@@H](Cc4ccccc4)C(=O)N[C@@H](CCSC)C(=O)N[C@@H](CCCNC(=N)N)C(=O)N[C@@H](CCCCN)C(=O)N2)NC(=O)[C@H](CSSC[C@@H](C(=O)N[C@@H](CCCCN)C(=O)N[C@@H](Cc2ccc(O)cc2)C(=O)N[C@@H](Cc2c[nH]c4ccccc24)C(=O)N[C@@H](Cc2ccccc2)C(N)=O)NC(=O)[C@H](Cc2c[nH]c4ccccc24)NC(=O)[C@H](CCCCN)NC(=O)[C@H](Cc2c[nH]cn2)NC(=O)[C@H](CC(C)C)NC(=O)[C@H](CCCNC(=N)N)NC(=O)[C@H](CO)NC3=O)NC(=O)[C@H](CCCCN)NC(=O)[C@H](CC(=O)O)NC(=O)[C@H](CC(N)=O)NC(=O)[C@H](CC(=O)O)NC(=O)[C@@H]2CCCN2C1=O` [compound 447] (H-DCLGFMRKCIPDNDKCCRPNLVCSRLHKWCKYWF-NH2; disulfide 2-17, 9-23, 16-30), the IC50 at hNav1.3 was 20 nM; on hNav1.5 it was over 5000 nM; at hNav1.7 it was 30 nM.

Regarding `CC[C@H](C)[C@@H]1NC(=O)[C@@H]2CSSC[C@@H]3NC(=O)[C@H](C(C)C)NC(=O)[C@H](CC(C)C)NC(=O)[C@H](CC(N)=O)NC(=O)[C@@H]4CCCN4C(=O)[C@H](CCCNC(=N)N)NC(=O)[C@H](CSSC[C@H](NC(=O)[C@@H](N)CC(=O)O)C(=O)N[C@@H](CC(C)C)C(=O)NCC(=O)N[C@@H](Cc4ccccc4)C(=O)N[C@@H](Cc4c[nH]c5ccccc45)C(=O)N[C@@H](CCCNC(=N)N)C(=O)N[C@@H](CCCCN)C(=O)N2)NC(=O)[C@H](CSSC[C@@H](C(=O)N[C@@H](CCCCN)C(=O)N[C@@H](Cc2ccc(O)cc2)C(=O)N[C@H](C(=O)N[C@@H](Cc2ccccc2)C(N)=O)C(C)C)NC(=O)[C@H](Cc2c[nH]c4ccccc24)NC(=O)[C@H](CCCNC(=N)N)NC(=O)[C@H](Cc2c[nH]cn2)NC(=O)[C@H]([C@@H](C)O)NC(=O)[C@H](CCCNC(=N)N)NC(=O)[C@H](CO)NC3=O)NC(=O)[C@H](CCCCN)NC(=O)[C@H](CC(=O)O)NC(=O)[C@H](CC(N)=O)NC(=O)[C@H](CC(=O)O)NC(=O)[C@@H]2CCCN2C1=O` [compound 448] (H-DCLGFWRKCIPDNDKCCRPNLVCSRTHRWCKYVF-NH2; disulfide 2-17, 9-23, 16-30), the IC50 at hNav1.3 was 10 nM; on hNav1.5, 2910 nM; on hNav1.7, 10 nM.

With `CC[C@H](C)[C@@H]1NC(=O)[C@@H]2CSSC[C@@H]3NC(=O)[C@H](C(C)C)NC(=O)[C@H](CC(C)C)NC(=O)[C@H](CC(N)=O)NC(=O)[C@@H]4CCCN4C(=O)[C@H](CCCNC(=N)N)NC(=O)[C@H](CSSC[C@H](NC(=O)[C@@H](N)CC(=O)O)C(=O)N[C@@H](CC(C)C)C(=O)NCC(=O)N[C@@H](Cc4ccccc4)C(=O)N[C@@H](Cc4c[nH]c5ccccc45)C(=O)N[C@@H](CCCNC(=N)N)C(=O)N[C@@H](CCCCN)C(=O)N2)NC(=O)[C@H](CSSC[C@@H](C(=O)N[C@@H](CCCCN)C(=O)N[C@@H](Cc2c[nH]c4ccccc24)C(=O)N[C@H](C(=O)N[C@@H](Cc2ccccc2)C(N)=O)C(C)C)NC(=O)[C@H](Cc2c[nH]c4ccccc24)NC(=O)[C@H](CCCCN)NC(=O)[C@H](Cc2c[nH]cn2)NC(=O)[C@H]([C@@H](C)O)NC(=O)[C@H](CCCNC(=N)N)NC(=O)[C@H](CO)NC3=O)NC(=O)[C@H](CCCCN)NC(=O)[C@H](CC(=O)O)NC(=O)[C@H](CC(N)=O)NC(=O)[C@H](CC(=O)O)NC(=O)[C@@H]2CCCN2C1=O` [compound 449] (H-DCLGFWRKCIPDNDKCCRPNLVCSRTHKWCKWVF-NH2; disulfide 2-17, 9-23, 16-30), the IC50 at hNav1.3 stood at 10 nM; at hNav1.5 it was 2930 nM; on hNav1.7, 30 nM.
